This note sets out measurements from patent US5708018A, “2-aminoindans as selective dopamine D3 ligands” (Pharmacia & Upjohn Company, priority 1996, dated 1998).

One test concerns the target T1, D3 (Rattus norvegicus, UniProt P19020).
T1 construct: expressed in transfected cells; host or cells: CHO-K1
In words: Competition binding, cloned mammalian D3 receptors expressed in CHO-K1 cells, [3H]-spiperone. Here is the method: (§1) Competition binding experiments employed eleven dilutions of test compounds competing with [^3 H]-5-(dipropylamino)-5,6-dihydro-4H-imidazo(4,5,1-ij)quinolin-2(1H)-one (R-enantiomer) (62 Ci/mmol, 2 nM) and [^3 H]-spiperone (107 Ci/mmol, 0.5 nM) for D2 and D3 binding sites, respectively. (Lahti, R. A., Eur. J. Pharmacol., 202, 289 (1991)) In each experiment, cloned mammalian receptors expressed in CHO-K1 cells were used. (Chio, C. L., Nature, 343, 266 (1990); and Huff, R. M., Mol. Pharmacol. (1993), in press). IC50 values were estimated by fitting the data to a one-site model by non-linear least squares minimization. Ki values were calculated with the Chen-Prushoff equation.

Another test concerns the target T2, D2 (Rattus norvegicus, UniProt P61169).
T2 construct: expressed in transfected cells; host or cells: CHO-K1
In words: Competition binding, cloned mammalian D2 receptors expressed in CHO-K1 cells, [3H]-5-(dipropylamino)-5,6-dihydro-4H-imidazo(4,5,1-ij)quinolin-2(1H)-one (R-enantiomer). Particulars: radioligand 2 nM, IC50 from one-site fit, Ki by Chen-Prushoff equation. Here is the method:
as §1

Setting [1] is: cloned mammalian receptors in CHO-K1 cells, [3H]-spiperone 0.5 nM, IC50 from one-site fit, Ki by Chen-Prushoff equation, read-out: D3 (ki).

Where two headings read alike, the source gives them in different places.

T1 sequence (P19020 whole entry): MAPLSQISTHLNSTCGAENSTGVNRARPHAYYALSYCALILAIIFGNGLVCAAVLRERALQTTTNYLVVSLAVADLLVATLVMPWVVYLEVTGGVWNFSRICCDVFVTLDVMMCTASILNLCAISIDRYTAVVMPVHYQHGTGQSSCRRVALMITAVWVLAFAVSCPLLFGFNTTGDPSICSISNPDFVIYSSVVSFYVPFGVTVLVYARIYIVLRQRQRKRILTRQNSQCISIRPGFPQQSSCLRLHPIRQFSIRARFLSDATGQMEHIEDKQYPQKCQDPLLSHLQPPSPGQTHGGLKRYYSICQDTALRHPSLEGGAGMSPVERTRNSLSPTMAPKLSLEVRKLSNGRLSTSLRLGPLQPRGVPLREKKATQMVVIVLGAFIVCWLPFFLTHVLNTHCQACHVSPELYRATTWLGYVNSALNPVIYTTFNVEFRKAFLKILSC
T2 sequence (P61169 whole entry): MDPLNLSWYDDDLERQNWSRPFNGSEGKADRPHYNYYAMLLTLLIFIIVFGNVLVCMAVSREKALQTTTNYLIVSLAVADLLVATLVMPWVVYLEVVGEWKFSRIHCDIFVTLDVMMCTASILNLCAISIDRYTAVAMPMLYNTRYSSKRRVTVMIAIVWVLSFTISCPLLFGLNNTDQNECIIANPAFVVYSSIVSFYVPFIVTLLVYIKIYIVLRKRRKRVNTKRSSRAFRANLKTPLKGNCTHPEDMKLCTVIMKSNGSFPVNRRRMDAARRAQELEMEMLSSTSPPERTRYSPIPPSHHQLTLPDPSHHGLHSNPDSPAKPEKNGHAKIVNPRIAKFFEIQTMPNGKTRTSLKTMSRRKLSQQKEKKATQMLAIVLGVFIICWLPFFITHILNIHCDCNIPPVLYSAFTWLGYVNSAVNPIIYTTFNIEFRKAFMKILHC

Regarding `CCCN(CCC)C1Cc2ccc(OS(=O)(=O)C(F)(F)F)cc2C1` (centres unmarked) [Example 2], the Ki at D3 turned out to be 31 nM; at D2, 350 nM.

As for `CCCN(CCC)C1Cc2cc(O)c(C(=O)OC)cc2C1` (centres unmarked) [Example 10, 5-(carbomethoxy)-6-hydroxy-2-(di-N-propylamino)indan], the values for the Ki on D3 and at D2 were 6.5 nM and 121 nM, respectively.

Take `CCCN(CCC)C1Cc2ccc(OS(=O)(=O)c3ccc(C)cc3)cc2C1` (centres unmarked) [Example 17, Toluene-4-sulfonic acid 2-dipropylamino-indan-5-yl ester]: the Ki was 3.7 nM at D3 (setting [1]) and 108 nM at D2.

For `CCCN(CCC)C1Cc2cc(OS(=O)(=O)c3ccc(C)cc3)c(OS(=O)(=O)c3ccc(C)cc3)cc2C1` [Example 32, 5,6 di-toluenesulfonyloxy-2-(di-n-propylamino)indan], the figures for the Ki on D3 (setting [1]) and at D2 were 45 nM and 291 nM, respectively.
